# Measurements: US5610158A, “4-oxo- and 4H-imidazo(5,1-c)(1,4)benzoxazines useful as benzodiazepine receptor-binding agents” (The Upjohn Company, priority 1994, dated 1997)
# Biological target: benzodiazepine receptors
# Test: displacement of radioactive labelled flunitrazepam from benzodiazepine receptors
# Type: binding
# Description: In the following Table, Ki values are shown for Examples 1-19 which include comparative compounds 1, 7, 9 and 11, which are not compounds of the subject invention but are structurally similar.
# The Ki value is determined from a concentration response curve obtained in the presence and absence of a fixed concentration of competitive […], flunitrazepam. […] The lower Ki value indicates a higher affinity for benzodiazepine.
row,SMILES,Ki [nM]
1,"c1ccc2c(c1)OCc1c(-c3noc(C4CC4)n3)ncn1-2 [Example 1, 3-(5-Cyclopropyl-1,2,4-oxadiazol-3-yl)-4H-imidazo(5,1-c)(1,4)benzoxazine, reference compound]",39.7
2,"CC(C)(C)OC(=O)Nc1ccc2c(c1)OCc1c(-c3noc(C4CC4)n3)ncn1-2 [Example 2, 7-(Amino(t-butoxycarbonyl))-3-(5-cyclopropyl-1,2,4-oxadiazol-3-yl)-4H-imidazo(5,1-c)(1,4)benzoxazine]",10000
3,"O=C(OC1Oc2ccccc2-n2cnc(-c3noc(C4CC4)n3)c21)c1ccccc1 (stereo not shown) [Example 3, 3-(5-Cyclopropyl-1,2,4-oxadiazol-3-yl)-4-(benzoyloxy)-4H-imidazo(5,1-c)(1,4)benzoxazine]",121
4,"OC1Oc2ccccc2-n2cnc(-c3noc(C4CC4)n3)c21 (stereo not shown) [Example 4, 3-(5-Cyclopropyl-1,2,4-oxadiazol-3-yl)-4-hydroxy-4H-imidazo(5,1-c)(1,4)benzoxazine]",118
5,"Nc1ccc2c(c1)OCc1c(-c3noc(C4CC4)n3)ncn1-2 [Example 5, 7-Amino-3-(5-cyclopropyl-1,2,4-oxadiazol-3-yl)-4H-imidazo(5,1-c)(1,4)benzoxazine]",65.4
6,"CC(C)(C)OC(=O)Nc1ccc2c(c1)OC(OC(=O)c1ccccc1)c1c(-c3noc(C4CC4)n3)ncn1-2 (stereo not shown) [Example 6, 7-(Amino(t-butoxycarbonyl))3-(5-cyclopropyl-1,2,4-oxadiazol-3-yl)-4-(benzoyloxy)-4H-imidazo(5,1-c)(1,4)benzoxazine]",10000
7,"CCOC(=O)c1ncn2c1COc1ccccc1-2 [Example 7, Ethyl 4H-imidazo(5,1-c)(1,4)benzoxazine-3-carboxylate, reference compound]",59.6
8,"O=C(Nc1ccc2c(c1)OCc1c(-c3noc(C4CC4)n3)ncn1-2)C(F)(F)F [Example 8, 7-(Amino(trifluoroacetyl))-3-(5-cyclopropyl-1,2,4-oxadiazol-3-yl)-4H-imidazo(5,1-c)(1,4)benzoxazine]",10000
9,"c1ccc2c(c1)OCc1c(-c3nc(C4CC4)no3)ncn1-2 [Example 9, 3-(3-Cyclopropyl-1,2,4-oxadiazol-5-yl)-4H-imidazo(5,1-c)(1,4)benzoxazine, reference compound]",72.6
10,"O=c1oc2ccccc2n2cnc(-c3noc(C4CC4)n3)c12 [Example 10, 3-(5-Cyclopropyl-1,2,4-oxadiazol-3-yl)-4-oxo-4H-imidazo(5,1-c)(1,4)benzoxazine]",656

# Next, values leading:
row,Ki [nM],SMILES
1,69.9,"CC(C)(C)OC(=O)c1ncn2c1COc1ccccc1-2 [Example 11, Tert-butyl 4H-imidazo(5,1-c)(1,4)benzoxazine-3-carboxylate, reference compound]"
2,114,"CC1Oc2ccccc2-n2cnc(-c3noc(C4CC4)n3)c21 (stereo not shown) [Example 12, 3-(5-Cyclopropyl-1,2,4-oxadiazol-3-yl)-4-methyl-4H-imidazo(5,1-c)(1,4)benzoxazine]"
3,8.56,"Fc1ccc2c(c1)OCc1c(-c3noc(C4CC4)n3)ncn1-2 [Example 13, 3-(5-Cyclopropyl-1,2,4-oxadiazol-3-yl)-7-fluoro-4H-imidazo(5,1-c)(1,4)benzoxazine]"
4,67.1,"CC1(C)Oc2ccccc2-n2cnc(-c3noc(C4CC4)n3)c21 [Example 14, 3-(5-Cyclopropyl-1,2,4-oxadiazol-3-yl)-4,4-dimethyl-4H-imidazo(5,1-c)(1,4)benzoxazine]"
5,4.59,"CCOC(=O)c1ncn2c1COc1cc(F)ccc1-2 [Example 15, Ethyl 7-fluoro-4H-imidazo(5,1-c)(1,4)benzoxazine-3-carboxylate]"
6,32.4,"CC(C)(C)OC(=O)c1ncn2c1COc1cc(F)ccc1-2 [Example 16, Tert-butyl 7-fluoro-4H-imidazo(5,1-c)(1,4)benzoxazine-3-carboxylate]"
7,443,"CC(C)(C)c1nc(-c2ncn3c2COc2cc(F)ccc2-3)no1 [Example 17, 3-(5-Tert-butyl-1,2,4-oxadiazol-3-yl)-7-fluoro-4H-imidazo(5,1-c)(1,4)benzoxazine]"
8,154,"CN(C)c1noc(-c2ncn3c2COc2cc(F)ccc2-3)n1 [Example 18, 3-(3-dimethylamino-1,2,4-oxadiazol-5-yl)-7-fluoro-4H-imidazo(5,1-c)(1,4)benzoxazine]"
9,4.6,"CC(C)(C)OC(=O)c1ncn2c1COc1c-2ccc(F)c1C#N [Example 19, Tert-butyl 6-cyano-7-fluoro-4H-imidazo(5,1-c)(1,4)benzoxazine-3-carboxylate]"
